Experimental findings from ChEMBL document CHEMBL4311993, “Structure-activity relationship study of NPP1 inhibitors based on uracil-N1-(methoxy)ethyl-β-phosphate scaffold” (Eur J Med Chem, 2019) are described below.

Data set [1] has as its target T1, Ectonucleotide pyrophosphatase/phosphodiesterase family member 1 (Homo sapiens) (UniProt P22413).
T1 sequence (whole entry): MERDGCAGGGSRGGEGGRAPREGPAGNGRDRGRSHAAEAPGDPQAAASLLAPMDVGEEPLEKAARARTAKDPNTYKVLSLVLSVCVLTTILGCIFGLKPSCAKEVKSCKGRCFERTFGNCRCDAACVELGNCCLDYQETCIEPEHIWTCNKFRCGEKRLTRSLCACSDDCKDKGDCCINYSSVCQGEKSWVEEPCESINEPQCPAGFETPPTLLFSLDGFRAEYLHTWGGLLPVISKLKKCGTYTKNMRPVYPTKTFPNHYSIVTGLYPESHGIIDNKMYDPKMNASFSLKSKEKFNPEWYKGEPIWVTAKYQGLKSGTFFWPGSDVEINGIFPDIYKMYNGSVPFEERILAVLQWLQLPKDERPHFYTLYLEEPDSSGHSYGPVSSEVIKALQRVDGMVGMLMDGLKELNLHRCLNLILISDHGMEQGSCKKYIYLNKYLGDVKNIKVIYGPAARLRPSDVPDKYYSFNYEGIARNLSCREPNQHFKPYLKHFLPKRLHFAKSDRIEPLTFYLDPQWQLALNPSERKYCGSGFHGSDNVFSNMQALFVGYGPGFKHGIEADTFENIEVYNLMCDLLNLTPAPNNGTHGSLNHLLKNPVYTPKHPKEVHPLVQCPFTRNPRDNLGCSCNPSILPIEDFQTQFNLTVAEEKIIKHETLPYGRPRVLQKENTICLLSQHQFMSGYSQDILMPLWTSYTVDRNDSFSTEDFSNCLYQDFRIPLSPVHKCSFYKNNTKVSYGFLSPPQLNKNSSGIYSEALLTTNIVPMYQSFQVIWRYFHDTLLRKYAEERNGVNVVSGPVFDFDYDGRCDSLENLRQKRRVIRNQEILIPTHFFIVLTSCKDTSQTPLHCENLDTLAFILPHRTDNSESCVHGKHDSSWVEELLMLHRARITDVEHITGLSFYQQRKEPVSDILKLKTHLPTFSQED
As to the kind of experiment: Inhibition of human NPP1 expressed in COS7 cell membranes at 100 uM using pNP-TMP as substrate preincubated for 3 mins followed by substrate addition and measured after 15 mins relative to control.

Data set [2] concerns the target T2, Ectonucleotide pyrophosphatase/phosphodiesterase family member 3 (Homo sapiens) (UniProt O14638).
T2 sequence (whole entry): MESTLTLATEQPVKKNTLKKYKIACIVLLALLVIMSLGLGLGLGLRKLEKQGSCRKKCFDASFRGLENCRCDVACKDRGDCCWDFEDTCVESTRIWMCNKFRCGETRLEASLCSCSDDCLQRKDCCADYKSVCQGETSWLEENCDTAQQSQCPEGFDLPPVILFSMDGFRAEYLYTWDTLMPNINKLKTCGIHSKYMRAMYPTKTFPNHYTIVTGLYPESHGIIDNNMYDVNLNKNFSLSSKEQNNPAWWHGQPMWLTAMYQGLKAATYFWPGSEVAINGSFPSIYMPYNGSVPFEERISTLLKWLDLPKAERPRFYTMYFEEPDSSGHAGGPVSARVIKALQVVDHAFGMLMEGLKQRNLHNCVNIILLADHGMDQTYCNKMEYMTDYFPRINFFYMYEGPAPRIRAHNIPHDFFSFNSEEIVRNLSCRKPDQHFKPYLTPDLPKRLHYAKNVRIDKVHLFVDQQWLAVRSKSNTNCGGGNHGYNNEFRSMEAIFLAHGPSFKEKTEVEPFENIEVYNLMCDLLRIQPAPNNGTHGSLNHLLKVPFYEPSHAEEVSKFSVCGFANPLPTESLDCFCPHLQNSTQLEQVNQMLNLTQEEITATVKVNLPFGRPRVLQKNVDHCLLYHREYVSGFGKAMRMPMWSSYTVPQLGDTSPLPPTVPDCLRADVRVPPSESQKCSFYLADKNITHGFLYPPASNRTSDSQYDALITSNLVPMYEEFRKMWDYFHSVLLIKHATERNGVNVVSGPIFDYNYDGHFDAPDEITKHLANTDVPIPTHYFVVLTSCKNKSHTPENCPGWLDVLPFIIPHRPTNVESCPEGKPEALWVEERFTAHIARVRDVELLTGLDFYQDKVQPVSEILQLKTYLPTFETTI
As to the kind of experiment: Inhibition of human NPP3 expressed in COS7 cell membranes at 100 uM using pNP-TMP as substrate preincubated for 3 mins followed by substrate addition and measured after 15 mins relative to control.

For data set [3], the target named is T3, Ectonucleotide pyrophosphatase/phosphodiesterase family member 1 (Homo sapiens, UniProt P22413).
T3 sequence (P22413 whole entry): T1 sequence (whole entry)
As to the kind of experiment: Inhibition of human NPP1 expressed in COS7 cell membranes using pNP-TMP as substrate preincubated for 3 mins followed by substrate addition and measured after 15 mins by Dixon plot analysis.

Data set [4] has as its target P2Y purinoceptor 2 (Homo sapiens) (UniProt P41231). As to the kind of experiment: Agonist activity at human P2Y2 receptor expressed in AD293 cells assessed as inositol-1-phosphate accumulation at 100 uM. It is filed as functional, cell-based.
Data set [5] shares this target. As to the kind of experiment: Antagonist activity at human P2Y2 receptor expressed in AD293 cells assessed as inhibition of UTP-induced inositol-1-phosphate accumulation at 100 uM. The data set is classed as functional, cell-based.
In data set [6] the target is P2Y purinoceptor 4 (Homo sapiens) (UniProt P51582). As to the kind of experiment: Agonist activity at human P2Y4 receptor expressed in AD293 cells assessed as inositol-1-phosphate accumulation at 0.1 to 100 uM. It is filed as functional, cell-based.
For data set [7] the target is unchanged. As to the kind of experiment: Antagonist activity at human P2Y4 receptor expressed in AD293 cells assessed as inhibition of UTP-induced inositol-1-phosphate accumulation at 0.1 to 100 uM. It is filed as functional, cell-based.
For data set [8], the target named is P2Y purinoceptor 6 (Homo sapiens) (UniProt Q15077). Briefly: Antagonist activity at human P2Y6 receptor expressed in AD293 cells assessed as inhibition of UDP-induced inositol-1-phosphate accumulation at 0.1 to 100 uM. The data set is classed as functional, cell-based.
The target is the same in data set [9]. As to the kind of experiment: Agonist activity at human P2Y6 receptor expressed in AD293 cells assessed as inositol-1-phosphate accumulation at 100 uM. It is filed as functional, cell-based.
A further data set is filed under the species Homo sapiens. Briefly: Inhibition of alkaline phosphatase in human primary chondrocyte at 100 uM using p-nitrophenyl phosphate as substrate after 30 mins by […] relative to control. (In general: ELISA stands for enzyme-linked immunosorbent assay.)
Data set [10] can be described thus: Cytotoxicity against human primary chondrocytes at 100 uM after 24 hrs by XTT assay. (In general: Tetrazolium dyes change colour on reduction, which living cells bring about.)
For data set [11], the target named is T3, Ectonucleotide pyrophosphatase/phosphodiesterase family member 1. As to the kind of experiment: Inhibition of full-length human NPP-1 expressed in baculovirus infected Sf9 cells using p-Nph5-TMP as substrate after 60 mins by colorimetric assay.

Active and inactive are the calls of the source. No cut-off for these calls is given here.

P2Y purinoceptor 4 (Homo sapiens), sequence (P51582 whole entry): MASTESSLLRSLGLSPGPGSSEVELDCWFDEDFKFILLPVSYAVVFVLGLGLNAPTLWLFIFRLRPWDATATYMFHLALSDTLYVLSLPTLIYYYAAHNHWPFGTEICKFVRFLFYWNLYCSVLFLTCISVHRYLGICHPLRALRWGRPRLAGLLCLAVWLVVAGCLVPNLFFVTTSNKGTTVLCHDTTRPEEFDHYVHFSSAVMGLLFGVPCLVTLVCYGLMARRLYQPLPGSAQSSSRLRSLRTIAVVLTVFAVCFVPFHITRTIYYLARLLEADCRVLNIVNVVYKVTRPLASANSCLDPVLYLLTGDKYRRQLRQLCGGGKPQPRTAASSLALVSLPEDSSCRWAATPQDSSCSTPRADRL
P2Y purinoceptor 2 (Homo sapiens), sequence (P41231 whole entry): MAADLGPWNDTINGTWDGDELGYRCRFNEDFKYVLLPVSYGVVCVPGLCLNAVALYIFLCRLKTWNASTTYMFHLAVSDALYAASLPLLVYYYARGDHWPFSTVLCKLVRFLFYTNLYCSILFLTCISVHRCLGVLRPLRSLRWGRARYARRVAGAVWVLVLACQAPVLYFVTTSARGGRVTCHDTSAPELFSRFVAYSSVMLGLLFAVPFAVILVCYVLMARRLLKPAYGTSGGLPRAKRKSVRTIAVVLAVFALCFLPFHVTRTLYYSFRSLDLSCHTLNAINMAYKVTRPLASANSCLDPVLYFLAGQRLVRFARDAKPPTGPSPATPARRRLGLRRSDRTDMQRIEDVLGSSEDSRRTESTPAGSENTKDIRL
P2Y purinoceptor 6 (Homo sapiens), sequence (Q15077 whole entry): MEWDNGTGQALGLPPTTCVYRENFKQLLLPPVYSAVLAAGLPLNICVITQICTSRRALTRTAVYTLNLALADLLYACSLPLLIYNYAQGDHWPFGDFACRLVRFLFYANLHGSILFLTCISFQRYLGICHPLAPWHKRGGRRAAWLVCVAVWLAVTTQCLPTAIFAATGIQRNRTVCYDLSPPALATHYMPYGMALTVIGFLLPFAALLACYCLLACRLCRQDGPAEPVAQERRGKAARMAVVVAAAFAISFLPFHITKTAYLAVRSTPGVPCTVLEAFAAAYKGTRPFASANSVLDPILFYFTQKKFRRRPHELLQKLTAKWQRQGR

With `O=c1ccn(COCCOP(=S)(S)OP(=O)(O)O)c(=O)[nH]1` (stereo not drawn), the inhibition in data set [1] is 96 to 98%; in [2], 30%; in the data set listed under Homo sapiens, less than 10%. The same molecule gave a Ki in data set [3] of 2.83 µM. The result in [4] and in [6] was inactive. The inhibition result in data set [5], in [7] and in [8] was “inactive” throughout. The outcome in [9] was Active. For the same molecule, the Activity entry in data set [10] is recorded as “Non-Toxic”.
For the molecule `O=c1ccn(COCCOP(=S)(S)OP(=O)(O)OP(=O)(O)O)c(=O)[nH]1` (stereo not drawn), the inhibition in data set [1] was 96 to 98%; in [2], 31%; in the data set filed under Homo sapiens, less than 10%. Moreover, affinity in data set [3] was put at a Ki of 1.28 µM. The result in [4] and in data set [6] was inactive. The inhibition result in [5], in [7] and in [8] was “inactive” in each case. The outcome in data set [9] was Active. In [10], the Activity result was “Non-Toxic”.
`Nc1ncnc2c1ncn2COCCOP(=O)(O)CP(=O)(O)O` yielded a Ki in data set [11] of 16.3 µM.

The term inhibition denotes the change of the read-out against control, counted positive when it falls. One may read the Ki as the equilibrium dissociation constant of an inhibitor or competing ligand from its target.
